Reference: paper PMC10303271, “Synthesis and Receptor Binding Studies of α5 GABAAR Selective Novel Imidazodiazepines Targeted for Psychiatric and Cognitive Disorders” (Molecules, 2023)
Where two headings read alike, the source gives them in different places.

Legend:
[1] = target: T1, DOR (Homo sapiens, UniProt P41143); test: PDSP radioligand binding at DOR
T1 construct: purchased NIMH Psychoactive Drug Screening Program (PDSP)
Description: Opioid receptors are a family of inhibitory G-coupled protein receptors where opioids act as the ligand. The kappa opioid receptors (KOR), µ and δ opioid receptors (MOR and DOR), and nociception opioid receptor (NOP) fall under the family of opioids receptors. It has been reported that oxadiazole imidazodiazepines can mediate analgesic and anti-inflammatory properties mediated also by the κ opioid receptor (KOR). The binding at KOR is usually silent. The affinities of the test compounds for KOR, DOR, and MOR were determined using radioligand binding assays at a screening concentration of 10,000 nM in collaboration with the National Institute of Mental Health’s Psychoactive Drug Screening Program (PDSP), as mentioned before. Concentration-dependent experiments were conducted to determine Ki values for the compounds that exceeded more than 50% radioligand displacement in primary binding assays.
(§1) The NIMH PDSP assay protocol book [https://kidbdev.med.unc.edu/databases/PDSP%20Protocols%20II%202013-03-28.pdf accessed on 23 April 2023]. describes the protocols for primary and secondary radio-ligand binding assays. These assays were carried out in a final volume of 125 µL per well in the appropriate binding buffer.
(§2) The binding of a ligand to a receptor, ion channel, or transporter was determined in the […] of 10 µM of the appropriate reference compound. […] Plates were incubated in the dark for 90 min at rt, and the reactions were stopped by vacuum filtration onto 0.3% polyethyleneimine (PEI) soaked 96-well filter mats using a 96-well Filtermateharvester. This was followed by three washes with cold PBS buffer. Radioactivity was then counted on a Microbeta counter. Nonlinear regression was used to analyze the data with N = 6 replicates.

[2] = target: T2, 5-HT2C (Homo sapiens, UniProt P28335); test: PDSP primary binding 5-HT2C; settings: 1.5 h; primary binding, 10,000 nM; last figure of the line = mean of the 4 before it; read-out: 5-HT2C, PDSP raw data, mean
T2 construct: purchased NIMH Psychoactive Drug Screening Program (PDSP)
T2 sequence (P28335 33-458): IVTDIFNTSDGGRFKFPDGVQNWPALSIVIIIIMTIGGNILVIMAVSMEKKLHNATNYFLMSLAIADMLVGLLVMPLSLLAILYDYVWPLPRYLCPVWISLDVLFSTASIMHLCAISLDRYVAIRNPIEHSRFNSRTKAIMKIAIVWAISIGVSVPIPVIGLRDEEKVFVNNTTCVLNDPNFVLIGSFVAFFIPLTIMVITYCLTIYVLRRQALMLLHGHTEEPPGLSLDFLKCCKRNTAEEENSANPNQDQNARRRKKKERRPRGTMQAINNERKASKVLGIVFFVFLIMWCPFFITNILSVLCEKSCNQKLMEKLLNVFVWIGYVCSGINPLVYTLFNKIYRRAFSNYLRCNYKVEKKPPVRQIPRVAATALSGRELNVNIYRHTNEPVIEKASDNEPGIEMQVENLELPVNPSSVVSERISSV
Procedure: (§3) To determine if any off-target receptor-binding effects are present, all the novel ligands were sent to the National Institute of Mental Health (NIMH), Psychoactive Drug Screening Program (PDSP). The ligands were screened over a panel of 47 receptors, ion channels, and transporters to determine any other possible interactions with […]. The hERG-binding was also determined. […] No binding of the test compounds to calcium channels was observed. […] It is necessary to screen the compounds for hERG-binding during the early process of drug discovery. The unintentional binding of many drugs to hERG can cause blockade of hERG K+ channels in the heart, which can cause many side effects including cardiac arrhythmias and sudden death. […] All of the α5 imidazodiazepines were tested for hERG-binding.
as §1, §2

[3] = system: Ca channel human; test: PDSP primary binding Ca channel; settings: primary binding, 10,000 nM; last figure of the line = mean of the 4 before it
Procedure: as §3, §1, §2

[4] = target: T3, Alpha2A (Homo sapiens, UniProt P08913); test: PDSP primary binding Alpha2A; settings: 1.5 h; primary binding, 10,000 nM; last figure of the line = mean of the 4 before it; read-out: Alpha2A, PDSP raw data, mean
T3 construct: purchased NIMH Psychoactive Drug Screening Program (PDSP)
T3 sequence (P08913 1-465): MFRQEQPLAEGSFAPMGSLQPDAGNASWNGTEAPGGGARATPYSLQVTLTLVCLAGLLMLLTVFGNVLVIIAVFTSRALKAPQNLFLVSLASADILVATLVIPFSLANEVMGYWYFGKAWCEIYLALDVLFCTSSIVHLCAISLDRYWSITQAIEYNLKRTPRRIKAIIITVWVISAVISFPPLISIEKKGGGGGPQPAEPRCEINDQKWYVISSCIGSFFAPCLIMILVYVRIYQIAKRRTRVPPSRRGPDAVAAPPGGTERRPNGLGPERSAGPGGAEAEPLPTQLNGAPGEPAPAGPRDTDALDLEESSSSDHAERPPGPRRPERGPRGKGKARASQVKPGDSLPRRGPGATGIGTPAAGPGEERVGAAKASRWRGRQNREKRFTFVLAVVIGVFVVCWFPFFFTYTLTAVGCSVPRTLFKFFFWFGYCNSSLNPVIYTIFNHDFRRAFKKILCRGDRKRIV
Procedure: as §3, §1, §2

[5] = target: T4, V2 (Homo sapiens, UniProt P30518); test: PDSP primary binding V2; settings: primary binding, 10,000 nM; last figure of the line = mean of the 4 before it; read-out: V2, PDSP raw data, mean
T4 construct: purchased NIMH Psychoactive Drug Screening Program (PDSP)
Procedure: as §3, §1, §2

[6] = target: T5, 5-HT1E (Homo sapiens, UniProt P28566); test: PDSP primary binding 5-HT1E; settings: primary binding, 10,000 nM; last figure of the line = mean of the 4 before it
T5 construct: purchased NIMH Psychoactive Drug Screening Program (PDSP)
Procedure: as §3, §1, §2

[7] = target: T6, D3 (Homo sapiens, UniProt P35462); test: PDSP primary binding D3; settings: 1.5 h; primary binding, 10,000 nM; last figure of the line = mean of the 4 before it; read-out: D3, PDSP raw data, mean
T6 construct: purchased NIMH Psychoactive Drug Screening Program (PDSP)
Procedure: as §3, §1, §2

[8] = target: T7, H4 (Homo sapiens, UniProt Q9H3N8); test: PDSP primary binding H4; settings: primary binding, 10,000 nM; last figure of the line = mean of the 4 before it; read-out: H4, PDSP raw data, mean
T7 construct: purchased NIMH Psychoactive Drug Screening Program (PDSP)
Procedure: as §3, §1, §2

[9] = target: T8, HCA2 (Homo sapiens, UniProt Q8TDS4); test: PDSP primary binding HCA2; settings: primary binding, 10,000 nM; last figure of the line = mean of the 4 before it; read-out: HCA2, PDSP raw data, mean
T8 construct: purchased NIMH Psychoactive Drug Screening Program (PDSP)
Procedure: as §3, §1, §2

[10] = target: T9, Alpha4Beta4 (Rattus norvegicus, UniProt P09483+P12392); test: PDSP primary binding Alpha4Beta4; settings: primary binding, 10,000 nM; last figure of the line = mean of the 4 before it; read-out: Alpha4Beta4, PDSP raw data, mean
T9 construct: purchased NIMH Psychoactive Drug Screening Program (PDSP)
Procedure: as §3, §1, §2

[11] = at 10,000 nM, N = 5, [3H]-DADLE 2.69 nM, read-out: Primary Binding %DOR
[12] = primary binding, 10,000 nM, last figure of the line = mean of the 4 before it, read-out: DOR, PDSP raw data, mean

T1 sequence (P41143 whole entry): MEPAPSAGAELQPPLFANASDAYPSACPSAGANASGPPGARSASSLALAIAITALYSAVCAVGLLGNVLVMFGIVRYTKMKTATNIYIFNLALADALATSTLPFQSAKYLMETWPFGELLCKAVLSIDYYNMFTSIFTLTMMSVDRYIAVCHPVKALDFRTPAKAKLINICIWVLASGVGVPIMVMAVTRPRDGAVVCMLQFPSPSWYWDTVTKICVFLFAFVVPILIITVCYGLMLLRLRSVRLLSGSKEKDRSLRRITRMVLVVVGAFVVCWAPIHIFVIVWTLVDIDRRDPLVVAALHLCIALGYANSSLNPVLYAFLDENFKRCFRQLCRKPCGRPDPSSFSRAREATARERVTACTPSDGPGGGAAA
T8 sequence (Q8TDS4 whole entry): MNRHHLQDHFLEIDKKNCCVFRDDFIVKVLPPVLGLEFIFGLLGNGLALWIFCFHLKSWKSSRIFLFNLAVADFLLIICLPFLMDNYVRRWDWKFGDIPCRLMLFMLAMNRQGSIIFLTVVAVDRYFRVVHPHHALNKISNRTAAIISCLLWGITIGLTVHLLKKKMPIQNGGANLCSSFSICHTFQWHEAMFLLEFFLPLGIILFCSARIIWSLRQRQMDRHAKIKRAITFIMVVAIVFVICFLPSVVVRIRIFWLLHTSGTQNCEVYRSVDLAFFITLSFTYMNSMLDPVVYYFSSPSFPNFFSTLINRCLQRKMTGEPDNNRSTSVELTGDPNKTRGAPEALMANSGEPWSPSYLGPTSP
T5 sequence (P28566 whole entry): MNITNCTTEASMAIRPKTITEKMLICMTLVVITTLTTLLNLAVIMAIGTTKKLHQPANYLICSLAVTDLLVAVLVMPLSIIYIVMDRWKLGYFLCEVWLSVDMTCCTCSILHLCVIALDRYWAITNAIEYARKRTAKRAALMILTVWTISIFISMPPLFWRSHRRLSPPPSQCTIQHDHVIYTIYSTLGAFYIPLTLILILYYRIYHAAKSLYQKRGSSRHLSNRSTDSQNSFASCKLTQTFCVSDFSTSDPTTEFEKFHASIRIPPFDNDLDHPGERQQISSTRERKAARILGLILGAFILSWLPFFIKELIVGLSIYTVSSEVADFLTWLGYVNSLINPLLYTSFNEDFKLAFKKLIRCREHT
T9 sequence (P09483 31-630): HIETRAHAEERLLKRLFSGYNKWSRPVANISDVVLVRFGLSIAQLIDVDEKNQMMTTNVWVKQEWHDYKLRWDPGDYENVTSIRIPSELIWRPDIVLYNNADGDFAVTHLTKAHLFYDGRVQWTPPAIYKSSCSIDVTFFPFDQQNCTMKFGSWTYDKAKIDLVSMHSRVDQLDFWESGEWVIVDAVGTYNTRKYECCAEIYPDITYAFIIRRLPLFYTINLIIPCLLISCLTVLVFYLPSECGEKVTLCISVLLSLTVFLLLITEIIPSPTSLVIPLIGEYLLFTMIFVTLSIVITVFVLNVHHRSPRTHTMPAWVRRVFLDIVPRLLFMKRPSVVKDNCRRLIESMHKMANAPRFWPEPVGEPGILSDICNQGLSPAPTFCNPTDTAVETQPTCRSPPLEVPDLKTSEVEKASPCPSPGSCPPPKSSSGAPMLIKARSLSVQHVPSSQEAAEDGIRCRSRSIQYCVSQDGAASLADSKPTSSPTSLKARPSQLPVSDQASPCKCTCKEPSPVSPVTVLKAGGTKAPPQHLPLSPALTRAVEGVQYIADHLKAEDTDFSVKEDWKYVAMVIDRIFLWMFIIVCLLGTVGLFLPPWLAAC
T9 sequence (P12392 21-495): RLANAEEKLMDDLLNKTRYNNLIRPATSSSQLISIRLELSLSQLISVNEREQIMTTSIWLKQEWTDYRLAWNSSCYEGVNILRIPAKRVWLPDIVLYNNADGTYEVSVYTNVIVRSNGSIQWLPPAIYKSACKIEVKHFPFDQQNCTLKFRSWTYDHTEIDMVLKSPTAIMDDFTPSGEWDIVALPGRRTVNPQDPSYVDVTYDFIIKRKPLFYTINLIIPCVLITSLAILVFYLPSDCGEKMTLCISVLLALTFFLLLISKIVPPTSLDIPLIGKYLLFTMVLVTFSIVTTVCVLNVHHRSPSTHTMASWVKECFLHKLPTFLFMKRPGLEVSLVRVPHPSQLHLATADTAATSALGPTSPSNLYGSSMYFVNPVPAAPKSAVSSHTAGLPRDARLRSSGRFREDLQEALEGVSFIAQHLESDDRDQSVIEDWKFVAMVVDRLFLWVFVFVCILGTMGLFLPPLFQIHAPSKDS
T6 sequence (P35462 whole entry): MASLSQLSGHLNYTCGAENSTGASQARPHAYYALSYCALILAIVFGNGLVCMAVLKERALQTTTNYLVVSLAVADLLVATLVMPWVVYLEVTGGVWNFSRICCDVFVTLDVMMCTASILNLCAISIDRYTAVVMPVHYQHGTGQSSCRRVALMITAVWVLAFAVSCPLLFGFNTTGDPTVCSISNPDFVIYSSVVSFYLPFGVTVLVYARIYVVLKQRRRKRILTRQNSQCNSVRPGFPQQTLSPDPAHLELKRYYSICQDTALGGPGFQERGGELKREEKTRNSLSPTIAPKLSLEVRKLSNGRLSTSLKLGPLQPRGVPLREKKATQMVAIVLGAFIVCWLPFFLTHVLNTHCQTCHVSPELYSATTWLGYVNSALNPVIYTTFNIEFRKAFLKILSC
T4 sequence (P30518 whole entry): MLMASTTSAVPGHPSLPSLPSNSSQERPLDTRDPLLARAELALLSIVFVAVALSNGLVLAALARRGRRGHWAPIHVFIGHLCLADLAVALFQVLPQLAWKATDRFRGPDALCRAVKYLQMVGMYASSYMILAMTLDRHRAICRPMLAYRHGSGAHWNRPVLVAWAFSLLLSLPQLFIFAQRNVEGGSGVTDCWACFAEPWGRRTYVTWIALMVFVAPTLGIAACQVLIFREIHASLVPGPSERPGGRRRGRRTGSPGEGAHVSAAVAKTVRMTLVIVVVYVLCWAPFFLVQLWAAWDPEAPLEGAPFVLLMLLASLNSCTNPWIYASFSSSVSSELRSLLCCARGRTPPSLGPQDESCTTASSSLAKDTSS
T7 sequence (Q9H3N8 whole entry): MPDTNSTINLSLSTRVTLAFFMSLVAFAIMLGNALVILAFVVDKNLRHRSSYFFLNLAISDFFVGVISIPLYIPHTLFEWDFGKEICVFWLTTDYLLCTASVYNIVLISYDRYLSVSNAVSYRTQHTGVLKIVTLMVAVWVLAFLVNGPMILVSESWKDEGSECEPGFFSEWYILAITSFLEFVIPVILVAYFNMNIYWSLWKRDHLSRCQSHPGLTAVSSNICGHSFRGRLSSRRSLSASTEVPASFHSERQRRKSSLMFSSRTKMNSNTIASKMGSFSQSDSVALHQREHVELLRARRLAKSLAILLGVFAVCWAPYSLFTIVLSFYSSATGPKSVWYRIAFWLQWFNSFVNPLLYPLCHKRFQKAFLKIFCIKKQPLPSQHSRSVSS

Compound | inhibition at 10 µM [1, 11] | inhibition at 10 µM [1, 12] | inhibition at 10 µM [2] | Ca channel human, PDSP raw data, mean [3] | inhibition at 10 µM [4] | inhibition at 10 µM [5] | 5-HT1E, PDSP raw data, mean [6] | inhibition at 10 µM [7] | inhibition at 10 µM [8] | inhibition at 10 µM [9] | inhibition at 10 µM [10]
C[C@H]1N=C(c2ccccc2F)c2cc(-c3ccccc3)ccc2-n2cnc(C(=O)N(C)C)c21 [Compound 5, (R)-6-(2′-Fluorophenyl)-N,N,4-trimethyl-8-phenyl-4H-benzo[f]imidazo[1,5-a][1,4]diazepine-3-carboxamide] | 43 ± 7.83% | 43% | 18% | 39.05% | 5.99% | 19.7% | 34.07% | -3.57% | 0.9% | -9.82% | 1.99%
C#Cc1ccc2c(c1)C(c1ccccc1Cl)=N[C@H](C)c1c(C(=O)NC)ncn1-2 [Compound 21, (R)-6-(2′-Chlorophenyl)-8-ethynyl-N,4-dimethyl-4H-benzo[f]imidazo[1,5-a][1,4]diazepine-3-carboxamide] | 28.3 ± 4.67% | 28.3% | -14.2% | 9.85% | -1.1% | 43% | 7.75% | 6.19% | -4.41% | 35.7% | 14.4%
C#Cc1ccc2c(c1)C(c1ccccn1)=N[C@@H](C)c1c(C(=O)NC)ncn1-2 [Compound 23, (S)-8-Ethynyl-N,4-dimethyl-6-(pyridin-2′-yl)-4H-benzo[f]imidazo[1,5-a][1,4]diazepine-3-carboxamide] | 14.9 ± 8.84% | 14.9% | -10.1% | 14.91% | 5.8% | 10.2% | 19.33% | 7.31% | -16.8% | 15.2% | 4.42%
C#Cc1ccc2c(c1)C(c1ccccc1Cl)=N[C@H](C)c1c(C(=O)N(C)CC)ncn1-2 [Compound 29] | 39.5 ± 3.21% | 39.5% | -10.7% | 22.67% | 7.96% | 21.9% | 19.25% | 13% | -21.5% | -26.3% | -3.3%
C#Cc1ccc2c(c1)C(c1ccccn1)=N[C@@H](C)c1c(C(=O)N(C)C)ncn1-2 [Compound 31, (S)-8-Ethynyl-N,N,4-trimethyl-6-(pyridin-2′-yl)-4H-benzo[f]imidazo[1,5-a][1,4]diazepine-3-carboxamide] | 6.18 ± 11.2% | 6.18% | -12.3% | 4.19% | -7.15% | 15.4% | 18.14% | 1.06% | -12.6% | 20.8% | 6.85%
C#Cc1ccc2c(c1)C(c1ccccc1F)=N[C@H](C)c1c(C(=S)N(C)C)ncn1-2 [Compound 33, (R)-8-Ethynyl-6-(2′-fluorophenyl)-N,N,4-trimethyl-4H-benzo[f]imidazo[1,5-a][1,4]diazepine-3-carbothioamide] | 13.2 ± 7.83% | 43% | 18% | 39.05% | 5.99% | 19.7% | 34.07% | -3.57% | 0.9% | -9.82% | 1.99%
CCc1noc(-c2ncn3c2[C@@H](C)N=C(c2ccccc2F)c2cc(-c4ccccc4)ccc2-3)n1 [Compound 35, (R)-3-Ethyl-5-(6-(2′-fluorophenyl)-4-methyl-8-phenyl-4H-benzo[f]imidazo[1,5-a][1,4]diazepin-3-yl)-1,2,4-oxadiazole] | 52.7 ± 4.38% | 52.7% | 19.7% | 61.85% | 34.5% | 37.4% | 5.88% | 16.2% | 54.7% | -18.7% | 17.9%
CCc1noc(-c2ncn3c2[C@@H](C)N=C(c2ccccc2F)c2cc(Cl)ccc2-3)n1 [Compound 36, (R)-5-(8-Chloro-6-(2′-fluorophenyl)-4-methyl-4H-benzo[f]imidazo[1,5-a][1,4]diazepin-3-yl)-3-ethyl-1,2,4-oxadiazole] | 40.7 ± 10.2% | 40.7% | 13.9% | 16.74% | -14.4% | 12.6% | 5.28% | 4.97% | 28.9% | -29.3% | 10.2%
CC(C)c1noc(-c2ncn3c2[C@@H](C)N=C(c2ccccc2F)c2cc(Cl)ccc2-3)n1 [Compound 37, (R)-5-(8-Chloro-6-(2′-fluorophenyl)-4-methyl-4H-benzo[f]imidazo[1,5-a][1,4]diazepin-3-yl)-3-isopropyl-1,2,4-oxadiazole] | 31.9 ± 9.58% | 31.9% | 17.5% | 7.04% | 22.8% | -7.17% | -14.78% | -0.7% | 6.39% | 35.2% | 12.9%
